Data reported in ChEMBL document CHEMBL5331145, “Discovery of a Novel Bifunctional Steroid Analog, YXG-158, as an Androgen Receptor Degrader and CYP17A1 Inhibitor for the Treatment of Enzalutamide-Resistant Prostate Cancer” (J Med Chem, 2023).

Columns and labels:
LNCaP = assay: Antiproliferative activity against human LNCaP cells incubated for 6 days by CellTiter-Glo assay; type: functional, cell-based
Androgen receptor [1] = target: T1, Androgen receptor (Homo sapiens, UniProt P10275); assay: Induction of androgen receptor degradation in human LNCaP cells incubated for 24 hrs by ELISA; type: cell-based
T1 sequence (P10275 whole entry): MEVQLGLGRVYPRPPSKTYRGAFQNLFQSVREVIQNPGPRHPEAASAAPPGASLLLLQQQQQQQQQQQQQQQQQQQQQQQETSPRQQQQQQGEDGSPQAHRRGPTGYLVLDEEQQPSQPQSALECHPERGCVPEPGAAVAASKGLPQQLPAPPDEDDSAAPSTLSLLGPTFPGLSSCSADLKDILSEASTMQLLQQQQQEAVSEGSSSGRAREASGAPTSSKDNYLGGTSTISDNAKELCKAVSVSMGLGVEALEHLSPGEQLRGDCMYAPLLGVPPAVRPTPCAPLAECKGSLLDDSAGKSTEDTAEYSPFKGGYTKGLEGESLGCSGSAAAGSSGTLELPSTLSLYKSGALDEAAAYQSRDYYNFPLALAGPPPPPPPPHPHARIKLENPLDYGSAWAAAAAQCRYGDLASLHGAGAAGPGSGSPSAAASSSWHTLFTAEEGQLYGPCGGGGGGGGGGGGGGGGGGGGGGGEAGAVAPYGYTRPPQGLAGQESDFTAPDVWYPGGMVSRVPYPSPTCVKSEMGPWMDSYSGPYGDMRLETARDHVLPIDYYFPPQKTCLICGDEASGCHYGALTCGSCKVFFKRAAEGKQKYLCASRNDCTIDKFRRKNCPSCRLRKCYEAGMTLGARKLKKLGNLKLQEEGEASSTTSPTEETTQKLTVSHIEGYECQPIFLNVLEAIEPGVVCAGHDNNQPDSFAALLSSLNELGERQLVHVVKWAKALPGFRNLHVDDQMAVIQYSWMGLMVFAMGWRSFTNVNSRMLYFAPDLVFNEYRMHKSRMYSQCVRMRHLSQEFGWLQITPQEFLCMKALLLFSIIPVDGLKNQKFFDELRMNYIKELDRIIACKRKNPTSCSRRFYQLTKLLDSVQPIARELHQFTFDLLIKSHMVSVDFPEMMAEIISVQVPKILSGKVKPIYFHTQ

[2] = target: T2, Androgen receptor (Homo sapiens) (UniProt P10275); assay: Potency index, ratio of galeterone DC50 to test compound DC50 for induction of androgen receptor degradation in human LNCaP cells; type: cell-based
T2 sequence (whole entry): T1 sequence (P10275 whole entry)

[3] = target: Voltage-gated inwardly rectifying potassium channel KCNH2 (Homo sapiens, UniProt Q12809); assay: Inhibition of human ERG by patch clamp assay; type: toxicity
Androgen receptor [4] = target: T1, Androgen receptor; assay: Antagonist activity at wild type androgen receptor expressed in HEK293 cells assessed as reduction in DHT-induced transcriptional activation of androgen receptor incubated for 24 hrs by Steady-Glo assay; type: cell-based
[5] = Cmax in Sprague-Dawley rat at 10 mg/kg, po measured upto 24 hrs by LC-MS/MS analysis; type: ADME, organism-based; set-up: dose 10 mg/kg, time < 24 hrs, route po; details: in vivo
[6] = Half life in Sprague-Dawley rat at 10 mg/kg, po measured upto 24 hrs by LC-MS/MS analysis; type: ADME, organism-based; details: in vivo
[7] = target: T3, Steroid 17-alpha-hydroxylase/17,20 lyase (Homo sapiens, UniProt P05093); assay: Inhibition of recombinant human CYP17A1 using progesterone as substrate incubated for 5 mins in presence of NADPH by LC-MS/MS analysis; type: ADME
T3 sequence (P05093 whole entry): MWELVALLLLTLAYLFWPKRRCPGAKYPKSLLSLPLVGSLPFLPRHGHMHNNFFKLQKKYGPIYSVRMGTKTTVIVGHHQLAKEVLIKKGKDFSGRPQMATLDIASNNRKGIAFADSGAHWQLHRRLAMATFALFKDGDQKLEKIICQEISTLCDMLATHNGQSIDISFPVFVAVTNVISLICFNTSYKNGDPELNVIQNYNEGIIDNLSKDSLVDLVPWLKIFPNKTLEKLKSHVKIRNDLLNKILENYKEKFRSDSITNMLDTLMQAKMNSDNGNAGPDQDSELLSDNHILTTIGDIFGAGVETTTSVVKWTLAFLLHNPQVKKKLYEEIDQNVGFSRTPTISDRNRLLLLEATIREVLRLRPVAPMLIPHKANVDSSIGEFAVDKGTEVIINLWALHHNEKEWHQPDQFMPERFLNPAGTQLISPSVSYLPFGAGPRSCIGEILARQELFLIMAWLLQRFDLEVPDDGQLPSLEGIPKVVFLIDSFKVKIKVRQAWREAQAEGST

[8] = AUC(0 to t) in Sprague-Dawley rat at 10 mg/kg, po measured upto 24 hrs by LC-MS/MS analysis; type: ADME, organism-based; details: in vivo
[9] = Tmax in Sprague-Dawley rat at 10 mg/kg, po measured upto 24 hrs by LC-MS/MS analysis; type: ADME, organism-based; details: in vivo

Voltage-gated inwardly rectifying potassium channel KCNH2, sequence (Q12809 whole entry): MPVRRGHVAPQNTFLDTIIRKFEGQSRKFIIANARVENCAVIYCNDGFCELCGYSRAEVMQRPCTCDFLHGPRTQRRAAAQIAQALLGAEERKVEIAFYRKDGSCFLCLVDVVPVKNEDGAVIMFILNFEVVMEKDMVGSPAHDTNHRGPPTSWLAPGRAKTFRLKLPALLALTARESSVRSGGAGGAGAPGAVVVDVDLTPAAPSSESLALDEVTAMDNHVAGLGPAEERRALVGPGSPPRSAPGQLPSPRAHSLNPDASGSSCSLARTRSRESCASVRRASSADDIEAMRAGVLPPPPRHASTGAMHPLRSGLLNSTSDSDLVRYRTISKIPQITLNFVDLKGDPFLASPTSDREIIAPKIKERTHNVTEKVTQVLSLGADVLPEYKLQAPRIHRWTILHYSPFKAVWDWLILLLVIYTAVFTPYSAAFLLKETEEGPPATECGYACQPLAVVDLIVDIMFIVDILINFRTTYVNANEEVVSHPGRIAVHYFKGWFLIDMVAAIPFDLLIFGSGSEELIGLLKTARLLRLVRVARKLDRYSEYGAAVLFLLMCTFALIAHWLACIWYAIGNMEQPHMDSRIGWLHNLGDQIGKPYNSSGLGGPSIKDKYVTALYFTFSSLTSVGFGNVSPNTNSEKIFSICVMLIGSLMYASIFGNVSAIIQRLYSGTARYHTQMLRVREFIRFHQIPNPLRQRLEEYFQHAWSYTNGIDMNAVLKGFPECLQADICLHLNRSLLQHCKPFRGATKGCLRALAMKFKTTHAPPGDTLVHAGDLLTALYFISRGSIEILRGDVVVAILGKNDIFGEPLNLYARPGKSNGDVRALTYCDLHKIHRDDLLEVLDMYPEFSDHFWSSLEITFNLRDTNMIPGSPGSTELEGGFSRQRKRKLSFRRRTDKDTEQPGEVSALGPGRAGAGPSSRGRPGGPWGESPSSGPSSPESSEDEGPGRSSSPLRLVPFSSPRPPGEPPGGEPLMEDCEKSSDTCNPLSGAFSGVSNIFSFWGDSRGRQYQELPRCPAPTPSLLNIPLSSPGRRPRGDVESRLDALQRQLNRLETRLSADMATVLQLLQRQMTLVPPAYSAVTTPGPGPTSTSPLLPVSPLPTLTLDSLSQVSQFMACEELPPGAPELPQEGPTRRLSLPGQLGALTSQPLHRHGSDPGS

IC50 (LNCaP) [nM] | SMILES | EC50 (Androgen receptor [1]) [nM] | Ratio [2] | IC50 [3] [nM] | other results
2100 | Cc1cn(C2=CCC3C4CC=C5C[C@@H](NS(=O)(=O)c6cccnc6)CC[C@]5(C)C4CC[C@]23C)cn1 (some centres undefined) | – | – | – | –
1830 | CC(O)c1cn(C2=CCC3C4CC=C5C[C@@H](NC(=O)c6ccnnc6)CC[C@]5(C)C4CC[C@]23C)cn1 (some centres undefined) | – | – | – | –
1490 | C[C@]12CC[C@H](NC(=O)c3ccnnc3)CC1=CCC1C2CC[C@]2(C)C(n3cnc(Br)c3)=CCC12 (some centres undefined) | – | – | – | –
4630 | CC(C)(O)c1cn(C2=CCC3C4CC=C5C[C@@H](NC(=O)c6ccnnc6)CC[C@]5(C)C4CC[C@]23C)cn1 (some centres undefined) | – | – | – | –
> 10000 | COc1ccc(C(=O)N[C@H]2CC[C@@]3(C)C(=CCC4C3CC[C@]3(C)C(n5cnc(C)c5)=CCC43)C2)cc1 (some centres undefined) | – | – | – | –
3440 | Cc1cn(C2=CCC3C4CC=C5C[C@@H](NS(=O)(=O)c6ccc([N+](=O)[O-])cc6)CC[C@]5(C)C4CC[C@]23C)cn1 (some centres undefined) | – | – | – | –
1120 | CC(C)(C)c1cn(C2=CCC3C4CC=C5C[C@@H](NC(=O)c6ccnnc6)CC[C@]5(C)C4CC[C@]23C)cn1 (some centres undefined) | – | – | – | –
2350 | C[C@]12CC[C@H](NC(=O)c3ccnnc3)CC1=CCC1C2CC[C@]2(C)C(n3cnc(F)c3)=CCC12 (some centres undefined) | – | – | – | –

SMILES | IC50 (LNCaP) [nM] | EC50 (Androgen receptor [1]) [nM] | Ratio [2] | IC50 [3] [nM] | other results
COc1cn(C2=CCC3C4CC=C5C[C@@H](NC(=O)c6ccnnc6)CC[C@]5(C)C4CC[C@]23C)cn1 (some centres undefined) | 475 | 3880 | 2.5 | 856000 | –
Cc1cn(C2=CCC3C4CC=C5C[C@@H](NC(=O)c6ccc(S(C)(=O)=O)cc6)CC[C@]5(C)C4CC[C@]23C)cn1 (some centres undefined) | 527 | 1370 | 2.5 | > 40000 | –
Cc1cn(C2=CCC3C4CC=C5C[C@@H](NC(=O)c6ccc([N+](=O)[O-])cc6)CC[C@]5(C)C4CC[C@]23C)cn1 (some centres undefined) | 595 | 2600 | 2.5 | > 40000 | –
Cc1cn(C2=CCC3C4CC=C5C[C@@H](NC(=O)c6ccncc6)CC[C@]5(C)C4CC[C@]23C)cn1 (some centres undefined) | 341 | 2840 | – | 6470 | IC50 (Androgen receptor [4]): 612 nM; Cmax [5]: 2670 ng/mL; half-life [6]: 2.8 h; IC50 [7]: 2590 nM; AUCt [8]: 24800 h/ng/mL; Tmax [9]: 2.17 h
Cc1cn(C2=CCC3C4CC=C5C[C@@H](NC(=O)c6ccncc6F)CC[C@]5(C)C4CC[C@]23C)cn1 (some centres undefined) | 752 | 5720 | 2.5 | > 40000 | –
C[C@]12CC[C@H](NC(=O)c3ccnnc3)CC1=CCC1C2CC[C@]2(C)C(n3cnc(C#N)c3)=CCC12 (some centres undefined) | 471 | – | – | 2870 | –
CCc1cn(C2=CCC3C4CC=C5C[C@@H](NC(=O)c6ccncc6)CC[C@]5(C)C4CC[C@]23C)cn1 (some centres undefined) | 356 | 3210 | 2.5 | 3580 | –
